We go through one molecule from patent US10106523B2, “Amide compound” (ASTELLAS PHARMA INC., priority 2014, dated 2018).

For one series, the target named is T1, rat EP2 receptor (Rattus norvegicus, UniProt Q62928).
T1 construct: expressed in transfected cells
As to the kind of experiment: Selectivity test: antagonistic action on rat EP2 receptor (cAMP amount, CHO-K1 cells). The format is cell-based. Particulars: PGE2 100 nmol/L, CHO-K1 cells stably expressing rat EP2; read-out: Concentration up to which no inhibitory action of 50% or more on the increase in intracellular cAMP amount due to PGE2 through the rat EP2 receptor. The procedure: Test Example 9: Evaluation Test of Receptor Antagonistic Action on Rat EP1/EP2/EP3 Receptor (Selectivity Test)
The antagonistic action of Compound A on other subtypes ([…], EP2, and EP3) of the rat-derived PGE2 receptor was evaluated. For EP1 and EP3, the intracellular Ca^2+ amount was used as an indicator, and for EP2, the intracellular cAMP amount was used as an indicator, so as to investigate the action of the test compound.
Construction of Rat EP1, EP2, or EP3 Receptor Expressing Vector: A rat EP1 receptor gene (GenBank accession No.: D88751.1), a rat EP2 receptor gene (GenBank accession No.: NM_031088.1), or a rat EP3 receptor gene (GenBank accession No.: NM_012704.1) were inserted respectively into an expression vector pcDNA3.1-V5-His-TOPO (Invitrogen Inc.).
Construction of Cell Stably Expressing Rat EP1, EP2, or EP3 Receptor: […]
The amount of cAMP contained in the cell lysate was measured with a cAMP HiRange kit in the same manner as in Test Example 4. The ratio of the cAMP amount when the test compound was treated was calculated, by taking the cAMP amount with addition of PGE2 having a final concentration of 100 nmol/L as 100% and taking the cAMP amount without addition of PGE2 as 0%.

Another series relates to SD rats. Briefly: Evaluation on rat gastrointestinal disorder (7-day oral administration, hematology, blood chemistry, histopathology). It counts as in vivo. The settings on record: 3 mg/kg po for 7 days. As for the experimental part: Test Example 10: Evaluation on Rat Gastrointestinal Disorder
SD rats (male, 7-week old) were used. A test compound dissolved in a mixed solution of PEG 400: 20% Tween 80: 1 mol/L aqueous NaHCO3 solution=1:4:5 was orally administered at a dose of 3 mg/kg (n=5, 5 mL/kg) for 7 days. The aforementioned mixed liquid was orally administered to a group not treated with the test drug (n=5) at a volume of 5 mL/kg for 7 days. Blood was collected under fasting overnight for hematology and blood chemistry tests on the following day after the final administration. After blood collection, the animal which had been euthanized by exsanguination was immediately necropsied, and the stomach, duodenum, jejunum, ileum, cecum, colon, rectum, and liver were excised therefrom. The excised organs were fixed in a 10% neutral buffered formalin solution and used for histopathological evaluation.

For series [1], the system named is renin activity in rat plasma. As to the kind of experiment: Action on renin activity in rat plasma (PRA increase due to EP4 agonist ONO-AE1-437). The format is in vivo. Particulars: SD rats, 0.3 mg/kg po; ONO-AE1-437 0.01 mg/kg sc. As for the experimental part:
Test Example 6: Evaluation Test of Action on Renin Activity in Rat Plasma
SD rats (male, 7-week old) under non-fasting conditions were used for the test. A test compound dissolved in a mixed solution of PEG 400:20% Tween 80:1 mol/L aqueous NaHCO3 solution=1:4:5 was orally administered (po) to the rat at a dose of 0.3 mg/kg (5 mL/kg). After 1 hour, an active metabolite (ONO-AE1-437) of an EP4 agonist ONO-4819 dissolved in physiological saline was subcutaneously administered to the back of the rat at a dose of 0.01 mg/kg (5 mL/kg). After 10 minutes, the rat was decapitated without anesthesia and about 2 mL of blood was collected in a tube containing 3 mg of EDTA.2Na. The blood sample was centrifuged (1000×g, 10 minutes, 4° C.) to separate the plasma. […] The Angiotensin I concentration in both samples was measured by an ELISA method, and a concentration obtained by subtracting a value of the blank reaction from the value of the sample incubated at 37° C. was taken as a renin activity in plasma (plasma renin activity (PRA)). By taking the PRA of the inhibitor rate of the group (n=5) not treated with ONO-AE1-437 as 100% and taking that of the group (n=4) treated with ONO-AE1-437 as 0%, the inhibitory rate of the test compound group (n=5) was calculated.

T1 sequence (Q62928 whole entry): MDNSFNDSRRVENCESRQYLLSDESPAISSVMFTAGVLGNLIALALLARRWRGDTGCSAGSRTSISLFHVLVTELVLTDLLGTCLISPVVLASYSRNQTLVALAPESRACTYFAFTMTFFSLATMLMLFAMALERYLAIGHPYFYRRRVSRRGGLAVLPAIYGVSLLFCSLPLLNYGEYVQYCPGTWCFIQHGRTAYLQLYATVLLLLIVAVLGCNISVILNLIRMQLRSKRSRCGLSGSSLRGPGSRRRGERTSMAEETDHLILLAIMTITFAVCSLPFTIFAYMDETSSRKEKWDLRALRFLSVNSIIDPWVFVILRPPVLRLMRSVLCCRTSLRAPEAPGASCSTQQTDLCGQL

Take `Cc1nn(Cc2cc3ccccc3cn2)c(C(=O)N[C@@H](C)c2ccc(C(=O)O)cc2)c1Br` [Compound A, 4-[(1S)-1-({[4-bromo-1-(isoquinolin-3-ylmethyl)-3-methyl-1H-pyrazol-5-yl]carbonyl}amino)ethyl]benzoic acid]: on rat EP2 receptor, the IC50 is over 10 µM. The “Findings indicating abnormality (hematology, blood chemistry, histopathology of gastrointestinal organs and liver)” value in the series on SD rats was “not observed”. The “Inhibition of the increase in PRA (plasma renin activity) due to the EP4 agonist ONO-AE1-437” value in series [1] is on record as 102%.
